Assay results taken from US9616107B2, “Therapy for kidney disease and/or heart failure” (priority 2011, dated 2017).
“Also recorded” adds a separate entry of the source. Where two headings read alike, the source gives them in different places. Marks after values point to notes of the source that are not given here. Ends that are not written are not given here.

Test: Toxicology study of VD in canines: 5-day continuous subcutaneous infusion, plasma VD by radioimmunoassay, clinical observations
Type: in vivo
Conditions: for half-life / AUC(0-t) / AUC / Tmax / Cmax / t1/2: beagle; for AUC(0-t): data through 122 hours; for average steady state peak concentrations: n=1 per sex
Experimental: VD was administered to canines via a subcutaneous delivery route. The dosing was performed at a high level to assess the toxicity of VD and to determine if a lethal dosing amount of the VD can be reached by subcutaneous administration.
VD was administered subcutaneously to canines using a Medtronic Paradigm® infusion pump (model MMT772) over a period of 5 days. VD was obtained as an acetate salt (VD-acetate) from Bachem (lot 2502022) and prepared in Tris/Glycerin/m-cresol buffer at a concentration of 15 mg/mL. The Tris/Glycerin/m-cresol buffer was prepared by mixing 16.0 g glycerol, 6.05 g tris-(hydroxymethyl)-aminomethane (“Tris”), 2.50 g meta cresol in a 1.00 L volumetric flask. Approximately 900 mL nanopure water was added to the volumetric flask and the mixture was magnetically stirred to reach complete dissolution. 4 normal hydrochloric acid was used to adjust pH to […] at 25° C.
VD was administered to one male and one female beagle canine at varying dosing amounts. Each canine received a first dosage level for 5 consecutive days followed by a 2-day washout period. Then, the same canines received a second, higher dosage level for an additional 5 consecutive days.
Prior to the beginning of dosing with VD (Day 0), the canines were placed in a sling and the dose site on the dorsolateral thorax was shaved. The shaved area was swabbed with 70% isopropyl alcohol and allowed to dry. DuraPrep™ (3M) was then applied and allowed to dry for 3 minutes. The catheter of the infusion set (Medtronic Silhouette Paradigm® Infusion Set MMT-378) was placed subcutaneously and perpendicular to the spine, and attached to the skin. The extension set was then attached to a previously weighed reservoir filled with VD at a concentration of 15 mg/mL in the Tris/Glycerin/m-cresol buffer. The reservoir was inserted into the pump located in a jacket pocket and dosing was commenced. The jacket was then secured and a collar was placed on each canine. Every day during the 5-day period, the reservoirs were exchanged with new filled reservoirs at approximately the same time each day.
At the end of the first 5-day dosing period, the infusion sets and jackets were removed, the area where the catheter was placed was marked, and the animals were allowed a 2-day washout period prior to the next treatment. For the next treatment at the second dosing amount, a new infusion site was chosen on the skin, and the pump was prepared as before.
The daily dosage level during the first 5-day period (Group 1) was 1.44 mg/(kg·day) (or 1000 ng/(kg·min)) for each canine corresponding with a dosage volume of 0.096 ml/(kg·day). The total dose delivered to each canine over the first 5-day period was 7.20 mg/kg. […] Following the 2-day washout period, the daily dosage level was increased to 2.88 mg/(kg·day) (or 2000 ng/(kg·min)) for each canine corresponding with a dosage volume of 0.192 ml/(kg·day) during the second 5-day period (Group 2). The total dose delivered to each canine over the second 5-day period was 14.4 mg/kg.
All animals were observed twice daily during the first and second 5-day periods for mortality and moribund appearance. Clinical examinations were also performed daily for the animals after dosing began. Detailed physical examinations were conducted on Day 0 prior to dosing and on study Day 5 after the pumps and jackets were removed from the canines. Individual body weights were recorded twice weekly during a 7-day pretest period, on study Day 0 prior to dosing and study Day 5 after the pumps and jackets were removed from the canines. Body weights and body weight changes were calculated for the corresponding intervals. Individual food consumption was recorded daily during the pretest period and throughout the study.
Blood samples for determination of plasma drug concentration were collected at 2, 4, 24 and 96 hours after the beginning of infusion, immediately prior to the end of infusion on Day 5, and 0.5, 1, 1.5, and 2 hours after the end of dosing. […]

In the case of “EVVPPQVLSEPNEEAGAALSPLPEVPPWTGEVSPAQR [VD, Vessel Dilator]”, the half-life (dog, in vivo, t1/2) is reported as 0.735 h, the AUC(0-t) (dog, in vivo, female canine, 1.44 mg/kg/day (7.20 mg/kg), SC infusion 5 days) is reported as 34700 ng·h/mL and the AUC (dog, in vivo, female canine, 1.44 mg/kg/day (7.20 mg/kg), SC infusion 5 days, τ 120 hours, read-out: AUCτ (AUGτ [sic])) is reported as 34400 ng·h/mL. It also gave a Tmax (dog, in vivo, female canine, 1.44 mg/kg/day (7.20 mg/kg), SC infusion 5 days, hours after start of infusion, read-out: Tmax) of 96 h, an AUC (dog, in vivo, female canine, 2.88 mg/(kg·day), maximum tolerated dose not determined, read-out: AUC that a maximum tolerated dose would exceed) of over 63300 ng·h/mL and a Cmax (dog, in vivo, female canine, 2.88 mg/(kg·day), maximum tolerated dose not determined, read-out: Cmax that a maximum tolerated dose would exceed) of over 579 ng/mL. It also gave an AUC(0-t) (dog, in vivo, female canine, 2.88 mg/kg/day (14.4 mg/kg), SC infusion 5 days) of 64100 ng·h/mL, an AUC (dog, in vivo, female canine, 2.88 mg/kg/day (14.4 mg/kg), SC infusion 5 days, τ 120 hours, read-out: AUCτ (AUGτ [sic])) of 63300 ng·h/mL and a Tmax (dog, in vivo, female canine, 2.88 mg/kg/day (14.4 mg/kg), SC infusion 5 days, hours after start of infusion, read-out: Tmax) of 96 h. For the same sequence, the Cmax (dog, in vivo, female canine, 2.88 mg/kg/day (14.4 mg/kg), SC infusion 5 days, read-out: Cmax) was 579 ng/mL, the Tmax (dog, in vivo, female canine, both dosages, after start of infusion, read-out: Tmax) was about 96 h and the AUC(0-t) (dog, in vivo, male canine, 1.44 mg/kg/day (7.20 mg/kg), SC infusion 5 days) was 31200 ng·h/mL. The AUC (dog, in vivo, male canine, 1.44 mg/kg/day (7.20 mg/kg), SC infusion 5 days, τ 120 hours, read-out: AUCτ (AUGτ [sic])) was 30800 ng·h/mL, the AUC (dog, in vivo, male canine, 2.88 mg/(kg·day), maximum tolerated dose not determined, read-out: AUC that a maximum tolerated dose would exceed) was over 58200 ng·h/mL and the Cmax (dog, in vivo, male canine, 2.88 mg/(kg·day), maximum tolerated dose not determined, read-out: Cmax that a maximum tolerated dose would exceed) was over 655 ng/mL. The AUC(0-t) (dog, in vivo, male canine, 2.88 mg/kg/day (14.4 mg/kg), SC infusion 5 days) was 58900 ng·h/mL, the AUC (dog, in vivo, male canine, 2.88 mg/kg/day (14.4 mg/kg), SC infusion 5 days, τ 120 hours, read-out: AUCτ (AUGτ [sic])) was 58200 ng·h/mL and the “survival and adverse effects on weight, food consumption or behavior” value (both canines, 1.44 then 2.88 mg/(kg·day), 5 days each) was “survived to the scheduled study termination without appreciable adverse effects on weight, food consumption or behavior”. For the same sequence, the half-life (both sexes, dog, in vivo, calculated half-life for elimination of Vessel Dilator in plasma) was 0.7 to 1.2 h, the Tmax (both sexes, dog, in vivo, sc) was 108 h and the “average steady state peak concentrations” value (canines, 1000 ng/kg·min constant SC dosing 5 days) was 257 to 287 ng/mL. The “average steady state peak concentrations” value (canines, 2000 ng/kg·min constant SC dosing 5 days) was 485 to 527 ng/mL, the “tolerance and toxicological effects of continuous subcutaneous infusion” value (canines, up to 2.88 mg/(kg·day)) was “high tolerance and no noticeable toxicological effects; also recorded: well-tolerated” and the “maximum tolerated dose for prolonged subcutaneous administration” value (canines, expected) was over 2000 ng/kg·min. The “effects on body weight” value (dog, in vivo) was “no effects on body weight”, the “effects related to food consumption” value (dog, in vivo) was “no effects related to food consumption” and the “fluctuation of plasma concentrations of VD” value (dog, in vivo) was “approximately 30%”. For the same sequence, the “potential VD administration-related clinical observations” value (dog, in vivo) was “reddened ears and/or reddened gums”, the “systemic exposure to VD (AUCτ and Cmax) versus dosage” value (dog, in vivo, 2.88 mg/kg/day) was “increased proportionally with the increase in dosage” and the “plasma concentration up to which no toxicity issues were shown” value (dogs, continuous five day subcutaneous infusion) was about 500 ng/mL. The t1/2 (female, dog, in vivo, sc) was 1.21† h, the half-life (female, dog, in vivo, sc, t1/2) was 0.801 h and the Tmax (male, dog, in vivo) was 120 h. For the same sequence, the Tmax (male, dog, in vivo, sc) was 120 h, the t1/2 (male, dog, in vivo, sc) was 0.793† h and the half-life (male, dog, in vivo, sc, t1/2) was 0.735 h.
